Measured values published in patent US11306101B2 (Celgene Corporation, priority 2019, dated 2022).

Molecular target: T1, CK1α (Homo sapiens, UniProt P48729+Q96SW2)
T1 construct: expressed in transfected cells
Test: CK1α ePL degradation assay in MDS-L cells
Format: cell-based
Details: MDS-L cells expressing ePL-tagged CK1α; for DC50: concentration giving 50% CK1α degradation vs DMSO control; for Y: lowest measured CK1α level normalized to DMSO control
Procedure: The following is an example of an assay that can be used to determine the CK1α degradation activity of Isoindolinone Carboxamide Compounds in a cell line, for example, the MDS-L cell line.
Compounds were dispensed by an acoustic dispenser (ATS acoustic transfer system from EDC Biosystems) into a 384-well in a 10 point dose-response curve using 3-fold dilutions starting at 10 μM and going down to 0.0005 μM in DMSO. […] Assay plates were incubated at 37° C. with 5% CO2 for the indicated times. At the different time points, 25 μL of the InCELL Hunter™ Detection Reagent Working Solution (catalog number 96-0002, DiscoverX, Fremont, Calif.) was added to each well and incubated at RT for 30 min protected from light. After 30 min, luminescence was read on a PHERAstar luminometer (BMG LABTECH, Cary, N.C.).
CK1α levels in compound-treated wells were normalized to that of DMSO control and expressed as percent of control (PoC) (y).
The lowest measured CK1α level normalized to DMSO control in response to compound treatment, termed Y value, was used to characterize the compound-mediated CK1α degradation efficiency.

T1 sequence (P48729 whole entry): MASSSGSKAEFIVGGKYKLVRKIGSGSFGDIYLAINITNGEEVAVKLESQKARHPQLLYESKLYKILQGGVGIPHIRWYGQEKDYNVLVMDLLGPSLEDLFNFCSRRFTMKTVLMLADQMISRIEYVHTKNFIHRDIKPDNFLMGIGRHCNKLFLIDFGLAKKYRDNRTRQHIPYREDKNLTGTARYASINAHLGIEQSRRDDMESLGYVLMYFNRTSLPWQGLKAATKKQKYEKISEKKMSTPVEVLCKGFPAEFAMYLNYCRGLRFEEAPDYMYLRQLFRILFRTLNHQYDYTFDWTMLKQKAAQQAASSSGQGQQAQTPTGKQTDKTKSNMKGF
T1 sequence (Q96SW2 whole entry): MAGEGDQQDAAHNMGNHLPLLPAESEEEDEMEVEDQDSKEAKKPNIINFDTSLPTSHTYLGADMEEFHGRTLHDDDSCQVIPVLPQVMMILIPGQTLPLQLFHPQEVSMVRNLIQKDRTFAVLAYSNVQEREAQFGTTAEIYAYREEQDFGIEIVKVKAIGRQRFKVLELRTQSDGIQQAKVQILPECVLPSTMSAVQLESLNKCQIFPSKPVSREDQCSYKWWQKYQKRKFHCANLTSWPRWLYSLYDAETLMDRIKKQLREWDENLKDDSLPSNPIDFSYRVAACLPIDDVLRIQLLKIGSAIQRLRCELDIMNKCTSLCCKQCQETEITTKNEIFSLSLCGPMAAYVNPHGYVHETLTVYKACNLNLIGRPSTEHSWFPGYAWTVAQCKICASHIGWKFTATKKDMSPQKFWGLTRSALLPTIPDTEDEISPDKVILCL
T1 sequence (Q16531 whole entry partner): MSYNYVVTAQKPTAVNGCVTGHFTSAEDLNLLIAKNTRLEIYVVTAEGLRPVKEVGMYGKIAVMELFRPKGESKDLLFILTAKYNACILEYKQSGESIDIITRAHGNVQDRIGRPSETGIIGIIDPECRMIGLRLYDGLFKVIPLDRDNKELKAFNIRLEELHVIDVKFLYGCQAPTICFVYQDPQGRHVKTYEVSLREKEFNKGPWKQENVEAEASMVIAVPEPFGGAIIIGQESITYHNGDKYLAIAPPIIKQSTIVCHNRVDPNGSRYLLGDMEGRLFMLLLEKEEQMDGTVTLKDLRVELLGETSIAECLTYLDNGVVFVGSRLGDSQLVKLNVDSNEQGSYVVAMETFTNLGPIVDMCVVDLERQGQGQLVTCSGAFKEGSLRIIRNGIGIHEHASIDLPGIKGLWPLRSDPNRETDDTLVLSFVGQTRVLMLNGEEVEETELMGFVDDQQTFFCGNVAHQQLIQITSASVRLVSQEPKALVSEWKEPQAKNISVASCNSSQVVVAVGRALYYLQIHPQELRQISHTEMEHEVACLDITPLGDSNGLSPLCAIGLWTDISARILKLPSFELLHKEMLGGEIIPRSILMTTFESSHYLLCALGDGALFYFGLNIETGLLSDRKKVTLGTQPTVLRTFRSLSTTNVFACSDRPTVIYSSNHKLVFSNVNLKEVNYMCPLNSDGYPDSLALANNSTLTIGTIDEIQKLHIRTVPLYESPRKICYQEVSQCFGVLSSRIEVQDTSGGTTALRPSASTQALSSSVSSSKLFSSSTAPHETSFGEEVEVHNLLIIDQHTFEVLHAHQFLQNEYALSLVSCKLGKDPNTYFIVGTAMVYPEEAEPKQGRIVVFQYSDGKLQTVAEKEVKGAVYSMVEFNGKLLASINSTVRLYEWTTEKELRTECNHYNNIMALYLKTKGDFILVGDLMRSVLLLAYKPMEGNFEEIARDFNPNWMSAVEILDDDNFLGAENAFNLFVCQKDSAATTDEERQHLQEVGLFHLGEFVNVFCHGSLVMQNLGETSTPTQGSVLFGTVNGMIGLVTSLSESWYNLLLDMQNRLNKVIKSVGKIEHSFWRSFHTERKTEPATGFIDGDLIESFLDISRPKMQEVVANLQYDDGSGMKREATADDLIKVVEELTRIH

SMILES	DC50	Y
O=C1CC[C@@H](N2Cc3cc(C(=O)N[C@H](c4ccc(F)cc4)C(F)(F)F)ccc3C2=O)C(=O)N1 [Example 104, 2-((R)-2,6-dioxopiperidin-3-yl)-1-oxo-N-((R)-2,2,2-trifluoro-1-(4-fluorophenyl)ethyl)isoindoline-5-carboxamide]	< 100 nM	* (a Y value (shown as *) of 0<Y≤20%)
CC(C)[C@@H](NC(=O)c1ccc2c(c1)CN(C1CCC(=O)NC1=O)C2=O)c1ccccc1 (stereo partly drawn) [Example 124, 2-(2,6-dioxopiperidin-3-yl)-N-((R)-2-methyl-1-phenylpropyl)-1-oxoisoindoline-5-carboxamide]	< 100 nM	* (a Y value (shown as *) of 0<Y≤20%)
O=C1CCC(N2Cc3c(ccc(C(=O)N[C@H](c4ccccc4OC(F)(F)F)C(F)(F)F)c3F)C2=O)C(=O)N1 (stereo partly drawn) [Example 136, 2-(2,6-dioxopiperidin-3-yl)-4-fluoro-1-oxo-N-((R)-2,2,2-trifluoro-1-(2-(trifluoromethoxy)phenyl)ethyl)isoindoline-5-carboxamide]	< 100 nM	* (a Y value (shown as *) of 0<Y≤20%)
O=C1CC[C@@H](N2Cc3cc(C(=O)N[C@H](c4ncccc4Cl)C(F)(F)F)ccc3C2=O)C(=O)N1 [Example 182, N-((R)-1-(3-chloropyridin-2-yl)-2,2,2-trifluoroethyl)-2-((R)-2,6-dioxopiperidin-3-yl)-1-oxoisoindoline-5-carboxamide]	< 100 nM	* (a Y value (shown as *) of 0<Y≤20%)
O=C1CCC(N2Cc3cc(C(=O)N[C@H](c4ccc(F)cc4C(F)(F)F)C(F)(F)F)ccc3C2=O)C(=O)N1 (stereo partly drawn) [Example 77, 2-(2,6-dioxopiperidin-3-yl)-1-oxo-N-((R)-2,2,2-trifluoro-1-(4-fluoro-2-(trifluoromethyl)phenyl)ethyl)isoindoline-5-carboxamide]	< 100 nM	* (a Y value (shown as *) of 0<Y≤20%)
O=C1CCC(N2Cc3cc(C(=O)N[C@H](C4CCC(F)(F)CC4)C(F)(F)F)ccc3C2=O)C(=O)N1 (stereo partly drawn) [Example 45, N-((R)-1-(4,4-difluorocyclohexyl)-2,2,2-trifluoroethyl)-2-(2,6-dioxopiperidin-3-yl)-1-oxoisoindoline-5-carboxamide]	100 to 500 nM	* (a Y value (shown as *) of 0<Y≤20%)
O=C1CCC(N2Cc3cc(C(=O)N[C@H](c4ccc(CN5CC(F)(F)C5)cc4)C(F)(F)F)ccc3C2=O)C(=O)N1 (stereo partly drawn) [Example 188, N-((R)-1-(4-((3,3-difluoroazetidin-1-yl)methyl)phenyl)-2,2,2-trifluoroethyl)-2-(2,6-dioxopiperidin-3-yl)-1-oxoisoindoline-5-carboxamide]	100 to 500 nM	** (a Y value (shown as**) of 20%<Y≤35%)
O=C1CCC(N2Cc3cc(C(=O)N[C@H](c4ccc(F)c(F)c4)C(F)(F)F)ccc3C2=O)C(=O)N1 (stereo partly drawn) [Example 73, N-((R)-1-(3,4-difluorophenyl)-2,2,2-trifluoroethyl)-2-(2,6-dioxopiperidin-3-yl)-1-oxoisoindoline-5-carboxamide]	< 100 nM	* (a Y value (shown as *) of 0<Y≤20%)
COc1cccnc1[C@@H](NC(=O)c1ccc2c(c1)CN(C1CCC(=O)NC1=O)C2=O)C(F)(F)F (stereo partly drawn) [Example 200, 2-(2,6-dioxopiperidin-3-yl)-1-oxo-N-((R)-2,2,2-trifluoro-1-(3-methoxypyridin-2-yl)ethyl)isoindoline-5-carboxamide]	< 100 nM	* (a Y value (shown as *) of 0<Y≤20%)
O=C1CCC(N2Cc3c(ccc(C(=O)N[C@H](c4ccccc4F)C(F)(F)F)c3F)C2=O)C(=O)N1 (stereo partly drawn) [Example 100, 2-(2,6-dioxopiperidin-3-yl)-4-fluoro-1-oxo-N-((R)-2,2,2-trifluoro-1-(2-fluorophenyl)ethyl)isoindoline-5-carboxamide]	100 to 500 nM	* (a Y value (shown as *) of 0<Y≤20%)
O=C1CCC(N2Cc3cc(C(=O)N[C@@H](CC(F)(F)F)c4cccc(F)c4)ccc3C2=O)C(=O)N1 (stereo partly drawn) [Example 162, 2-(2,6-dioxopiperidin-3-yl)-1-oxo-N-((S)-3,3,3-trifluoro-1-(3-fluorophenyl)propyl)isoindoline-5-carboxamide]	100 to 500 nM	** (a Y value (shown as**) of 20%<Y≤35%)
Cn1nccc1[C@@H](NC(=O)c1ccc2c(c1)CN(C1CCC(=O)NC1=O)C2=O)C(F)(F)F (stereo partly drawn) [Example 69, 2-(2,6-dioxopiperidin-3-yl)-1-oxo-N-((R)-2,2,2-trifluoro-1-(1-methyl-1H-pyrazol-5-yl)ethyl)isoindoline-5-carboxamide]	500 to 1000 nM	** (a Y value (shown as**) of 20%<Y≤35%)
O=C1CCC(N2Cc3cc(C(=O)N[C@H](c4ncc(F)cc4F)C(F)(F)F)ccc3C2=O)C(=O)N1 (stereo partly drawn) [Example 133, N-((R)-1-(3,5-difluoropyridin-2-yl)-2,2,2-trifluoroethyl)-2-(2,6-dioxopiperidin-3-yl)-1-oxoisoindoline-5-carboxamide]	< 100 nM	* (a Y value (shown as *) of 0<Y≤20%)
O=C1CCC(N2Cc3c(ccc(C(=O)N[C@H](c4ccc(F)c(F)c4)C(F)(F)F)c3F)C2=O)C(=O)N1 (stereo partly drawn) [Example 113, N-((R)-1-(3,4-difluorophenyl)-2,2,2-trifluoroethyl)-2-(2,6-dioxopiperidin-3-yl)-4-fluoro-1-oxoisoindoline-5-carboxamide]	100 to 500 nM	** (a Y value (shown as**) of 20%<Y≤35%)
O=C1CCC(N2Cc3c(ccc(C(=O)N[C@H](c4cccc(Cl)c4)C(F)(F)F)c3F)C2=O)C(=O)N1 (stereo partly drawn) [Example 107, N-((R)-1-(3-chlorophenyl)-2,2,2-trifluoroethyl)-2-(2,6-dioxopiperidin-3-yl)-4-fluoro-1-oxoisoindoline-5-carboxamide]	100 to 500 nM	** (a Y value (shown as**) of 20%<Y≤35%)
CC1([C@@H](NC(=O)c2ccc3c(c2)CN(C2CCC(=O)NC2=O)C3=O)C(F)(F)F)CC1 (stereo partly drawn) [Example 78, 2-(2,6-dioxopiperidin-3-yl)-1-oxo-N-((R)-2,2,2-trifluoro-1-(1-methylcyclopropyl)ethyl)isoindoline-5-carboxamide]	< 100 nM	* (a Y value (shown as *) of 0<Y≤20%)

The next lines start with the values.

DC50	Y	SMILES
< 100 nM	* (a Y value (shown as *) of 0<Y≤20%)	C[C@]1(O)CC[C@@H]([C@@H](NC(=O)c2ccc3c(c2)CN(C2CCC(=O)NC2=O)C3=O)C(F)(F)F)CC1 (stereo partly drawn) [Example 168, 2-(2,6-dioxopiperidin-3-yl)-1-oxo-N-((R)-2,2,2-trifluoro-1-((1s,4S)-4-hydroxy-4-methylcyclohexyl)ethyl)isoindoline-5-carboxamide]
500 to 1000 nM	** (a Y value (shown as**) of 20%<Y≤35%)	O=C1CCC(N2Cc3cc(C(=O)N[C@@H](CC(F)(F)F)c4ccc(Cl)cc4)ccc3C2=O)C(=O)N1 (stereo partly drawn) [Example 149, N-((S)-1-(4-chlorophenyl)-3,3,3-trifluoropropyl)-2-(2,6-dioxopiperidin-3-yl)-1-oxoisoindoline-5-carboxamide]
< 100 nM	* (a Y value (shown as *) of 0<Y≤20%)	CN1CCN(c2ccccc2[C@@H](NC(=O)c2ccc3c(c2)CN(C2CCC(=O)NC2=O)C3=O)C(F)(F)F)CC1 (stereo partly drawn) [Example 206, 2-(2,6-dioxopiperidin-3-yl)-1-oxo-N-((R)-2,2,2-trifluoro-1-(2-(4-methylpiperazin-1-yl)phenyl)ethyl)isoindoline-5-carboxamide]
100 to 500 nM	** (a Y value (shown as**) of 20%<Y≤35%)	C[C@H](NC(=O)c1ccc2c(c1)CN(C1CCC(=O)NC1=O)C2=O)c1cccnc1 (some centres unmarked) [Example 19]
100 to 500 nM	* (a Y value (shown as *) of 0<Y≤20%)	O=C1CCC(N2Cc3cc(C(=O)N[C@H](C4CCN(CC(F)(F)F)CC4)C(F)(F)F)ccc3C2=O)C(=O)N1 (stereo partly drawn) [Example 143, 2-(2,6-dioxopiperidin-3-yl)-1-oxo-N-((R)-2,2,2-trifluoro-1-(1-(2,2,2-trifluoroethyl)piperidin-4-yl)ethyl)isoindoline-5-carboxamide]
100 to 500 nM	** (a Y value (shown as**) of 20%<Y≤35%)	CC(C)[C@@H](NC(=O)c1ccc2c(c1)CN(C1CCC(=O)NC1=O)C2=O)c1ncccc1Cl (stereo partly drawn) [Example 171, N-((R)-1-(3-chloropyridin-2-yl)-2-methylpropyl)-2-(2,6-dioxopiperidin-3-yl)-1-oxoisoindoline-5-carboxamide]
< 100 nM	* (a Y value (shown as *) of 0<Y≤20%)	O=C1CCC(N2Cc3cc(C(=O)N[C@H](C4CCC5(CC4)CC5)C(F)(F)F)ccc3C2=O)C(=O)N1 (stereo partly drawn) [Example 166, 2-(2,6-dioxopiperidin-3-yl)-1-oxo-N-((1R)-2,2,2-trifluoro-1-(spiro[2.5]octan-6-yl)ethyl)isoindoline-5-carboxamide]
< 100 nM	* (a Y value (shown as *) of 0<Y≤20%)	C[C@H](NC(=O)c1ccc2c(c1)CN(C1CCC(=O)NC1=O)C2=O)c1ccc(Cl)cc1F (stereo partly drawn) [Example 55, N-((S)-1-(4-chloro-2-fluorophenyl)ethyl)-2-(2,6-dioxopiperidin-3-yl)-1-oxoisoindoline-5-carboxamide]
100 to 500 nM	** (a Y value (shown as**) of 20%<Y≤35%)	CN(C)Cc1cccc([C@@H](NC(=O)c2ccc3c(c2)CN(C2CCC(=O)NC2=O)C3=O)C(F)(F)F)c1 (stereo partly drawn) [Example 150, N-((R)-1-(3-((dimethylamino)methyl)phenyl)-2,2,2-trifluoroethyl)-2-(2,6-dioxopiperidin-3-yl)-1-oxoisoindoline-5-carboxamide]
